Tests used:
Format in all cases: cell-based, C. elegans
NPR-11 = biological target: T1, NPR-11 (Caenorhabditis elegans, UniProt Q18179); test: IP accumulation assay, co-transfected Gα16, NPR-11; conditions: 1 h, HBSS + 20 mM LiCl, HEK293 receptor + Gα16, HTRF IP-One, mean of >=3 independent experiments
T1 construct: expressed in transfected cells; host or cells: HEK293, transient
T1 sequence (Q18179 1-402): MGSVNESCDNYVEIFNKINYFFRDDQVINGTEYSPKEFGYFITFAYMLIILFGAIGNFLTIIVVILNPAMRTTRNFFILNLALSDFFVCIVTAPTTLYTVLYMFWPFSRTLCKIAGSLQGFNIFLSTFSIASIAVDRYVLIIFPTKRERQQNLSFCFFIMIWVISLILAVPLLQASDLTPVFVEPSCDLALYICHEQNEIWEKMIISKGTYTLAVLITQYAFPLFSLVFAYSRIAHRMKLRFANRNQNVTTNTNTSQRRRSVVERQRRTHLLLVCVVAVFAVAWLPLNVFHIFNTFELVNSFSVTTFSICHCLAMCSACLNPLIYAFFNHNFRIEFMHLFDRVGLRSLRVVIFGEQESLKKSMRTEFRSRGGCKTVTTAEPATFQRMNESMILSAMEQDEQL
Method: (§1) For measuring IP accumulation, HEK293 cells grown to 70–80% confluency in 6-well plates were transiently co-transfected using Metafectene Pro (2.5 μl/μg DNA; Biontex) with plasmids containing receptor and/or mock (empty pcDNA3.1) (for endogenous Gq-coupling) using 4 μg total DNA in a ratio of 3:1 following the manufacturer’s instructions. For testing Gα16- and GαΔ6qi4myr-coupling, plasmids encoding the corresponding Gα protein were co-transfected instead of mock. Gα16 is naturally promiscuous and stimulates the phospholipase C (PLC) pathway leading to IP production, while the exchange of the C-terminal four amino acids of Gαq for the corresponding residues of Gαi1 in the chimeric GαΔ6qi4myr confers the ability to couple to Gi/o protein-preferring receptors but still stimulate PLC, thus specifically redirecting downstream cellular signaling. 16 h post transfection, the cells were seeded into white 384-well plates at a density of 20,000 cells/well. Media was removed 24 h later and the cells were incubated with the indicated concentration of peptides for 1 h in HBSS + 20 mM LiCl. IP accumulation was measured with the HTRF-based IP-One Gq kit (Cisbio) on a microplate reader (Tecan Spark).
(§2) For in vitro activation, data is presented as mean ± SEM of at least three independent experiments conducted in technical triplicate. […]

NPR-6 = test: cAMP reporter gene assay, Gs (no forskolin), NPR-6; conditions: no forskolin, 4 h, transiently transfected HEK293, CRE-luciferase reporter, mean of >=3 independent experiments
Method: Activation of Gs and Gi/o was assessed with a cAMP reporter gene assay. HEK293 cells grown to 70–80% confluency in 6-well plates were transiently co-transfected with vectors encoding the receptor and the cAMP reporter gene plasmid pGL4.29 [luc2P/CRE/Hygro] (Promega; 4 μg total, 1:1 ratio) using Metafectene Pro (3 μl/μg DNA; Biontex) following the manufacturer’s instructions. 16 h post transfection, the cells were seeded into white 384-well plates at a density of 20,000 cells/well. On the next day, the medium was removed and the cells were stimulated with 20 μl of peptide solution (or forskolin as positive control) in serum-free DMEM for 4 h. For measuring Gi/o activity, the peptide solutions additionally contained 1 μM forskolin to elevate cellular cAMP levels. After incubation, the luciferase substrate OneGlo in lysis buffer (Promega) was added and the luminescence was measured in a microplate reader Tecan Spark (Tecan). Data were analyzed with GraphPad Prism 5.03 and are shown as fold of basal or fold of forskolin in case of Gαi/o activity.
For in vitro activation, data is presented as mean ± SEM of at least three independent experiments conducted in technical triplicate. […] For the C. elegans NPRs, we considered the strongest response elicited by any of the peptides downstream of a particular receptor as the receptor’s maximal signal. This may or may not be the biological maximum that can be reached by the ‘true’ endogenous agonist. For the human receptors, the response to the established endogenous agonist reflected the maximal signal.

NPR-1 = biological target: T2, NPR-1 (Caenorhabditis elegans, UniProt Q18534); test: IP accumulation assay, endogenous Gαq + mock, NPR-1; parameters: host or cells: HEK293; conditions: 1 h, HBSS + 20 mM LiCl, HEK293 receptor + empty vector, HTRF IP-One, mean of >=3 independent experiments
T2 sequence (Q18534 1-457): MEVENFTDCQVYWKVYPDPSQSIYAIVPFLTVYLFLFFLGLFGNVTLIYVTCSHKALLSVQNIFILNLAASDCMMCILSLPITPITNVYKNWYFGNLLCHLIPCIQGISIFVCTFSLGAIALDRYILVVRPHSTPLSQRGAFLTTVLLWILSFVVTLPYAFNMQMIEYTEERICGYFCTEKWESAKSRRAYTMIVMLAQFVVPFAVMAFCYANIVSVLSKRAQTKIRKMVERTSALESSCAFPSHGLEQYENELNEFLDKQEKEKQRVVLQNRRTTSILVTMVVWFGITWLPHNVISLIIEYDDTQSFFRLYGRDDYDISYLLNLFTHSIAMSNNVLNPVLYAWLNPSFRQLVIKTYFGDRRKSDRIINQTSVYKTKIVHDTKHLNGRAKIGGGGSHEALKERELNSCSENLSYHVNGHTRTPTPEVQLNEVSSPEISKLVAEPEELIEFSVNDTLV
Method: as §1, §2

NPR-4b = biological target: T3, NPR-4b (Caenorhabditis elegans, UniProt A0A078BTK0); test: IP accumulation assay, endogenous Gαq + mock, NPR-4b; conditions: 1 h, HBSS + 20 mM LiCl, HEK293 receptor + empty vector, HTRF IP-One, mean of >=3 independent experiments
T3 sequence (A0A078BTK0 1-376): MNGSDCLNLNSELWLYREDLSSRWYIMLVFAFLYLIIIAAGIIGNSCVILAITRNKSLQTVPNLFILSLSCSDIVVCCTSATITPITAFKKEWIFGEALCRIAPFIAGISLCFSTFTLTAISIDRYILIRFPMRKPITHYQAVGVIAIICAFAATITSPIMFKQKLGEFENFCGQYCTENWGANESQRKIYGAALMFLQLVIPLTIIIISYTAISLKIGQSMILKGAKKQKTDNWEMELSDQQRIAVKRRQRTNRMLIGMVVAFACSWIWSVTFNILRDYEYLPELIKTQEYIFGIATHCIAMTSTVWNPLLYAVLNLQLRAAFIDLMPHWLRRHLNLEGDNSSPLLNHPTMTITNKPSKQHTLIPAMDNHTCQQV
Method: as §1, §2

[1] = 0.1 nM peptide (so in the source)

Substance: APKPKFIRF-NH2 [FLP-5-1, C. elegans FMRFamide-like peptide, C-terminally amidated, synthesized by SPPS]
- IP assay endog. Gαq + Gα16, NPR-11 (NPR-11; [1]): 1.04 x-fold of basal
- IP assay endog. Gαq + Gα16, NPR-11 (NPR-11; 10 µM peptide): 0.84 x-fold of basal
- cAMP assay Gs, NPR-6 (NPR-6; 0.1 µM peptide): 0.68 x-fold of basal
- cAMP assay Gs, NPR-6 (NPR-6; 10 µM peptide): 0.57 x-fold of basal
- IP assay endog. Gαq + mock, NPR-1 (NPR-1; [1]): 0.89 x-fold of basal
- IP assay endog. Gαq + mock, NPR-1 (NPR-1; 10 µM peptide): 0.94 x-fold of basal
- IP assay endog. Gαq + mock, NPR-4b (NPR-4b; [1]): 0.98 x-fold of basal
- IP assay endog. Gαq + mock, NPR-4b (NPR-4b; 10 µM peptide): 0.99 x-fold of basal

Reference: PMC6751662, “Pharmacological and functional similarities of the human neuropeptide Y system in C. elegans challenges phylogenetic views on the FLP/NPR system” (Cell Communication and Signaling : CCS, 2019)
